The test system of data set [1] is HCT 116 human colon carcinoma. Briefly: In vitro cytotoxicity, cell colony formation assay, HCT116. In kind it is cell-based. On the procedure:
(§1) The cells were incubated in a CO2 incubator at 37° C. for 5 h for attachment to the bottom of Petri dishes. The compound of the present invention was made up fresh in medium at ten times the final concentration, and then 0.3 mL of this stock solution was added to the 2.7 mL of medium in the dish. The cells were then incubated with drugs for 72 h at 37° C. At the end of incubation the drug-containing media were decanted, the dishes were rinsed with 4 mL of Hank's Balance Salt Solution (HBSS), 5 mL of fresh medium was added, and the dishes were returned to the incubator for colony formation. The cell colonies were counted using a colony counter after incubation for 7 days. Cell survival was calculated and the values of IC50 (the drug concentration producing 50% inhibition of colony formation) were determined for each tested compound.

Data set [2] relates to VM46 (resistant variant of human colon carcinoma HCT 116). Briefly: In vitro cytotoxicity, cell colony formation assay, VM46. In kind it is cell-based. As for the experimental part: as §1
Identical assessments were carried out using VM46 (resistant variant of human colon carcinoma HCT 116 obtained from Dr. Li-Xi, M.D, Ph.D., California Pacific Medical Center, CA).

For data set [3], the system named is Sprague-Dawley rats. The data set can be described thus: In vivo toxicity assessment in rats, intravenous. To be noted: IV; for Rat tox score IV: summary score. As for the experimental part:
(§2) Toxicity was assessed in 250-300g Sprague-Dawley rats and three rats were used per dose group. Three dose groups of the test compound, (i.e., 3 mg/kg, 9 mg/kg and 12 mg/kg for intravenous administration; 15 mg/kg, 30 mg/kg and 40 mg/kg) and 1 control group constituted a study. Animals were observed and clinical chemistry data collected at days 4 and 10. Rats were euthanized on day 11 and the nerves were excised and fixed upon euthanization for further examination.
(§3) Each rat is scored as described below and a final toxicity score that incorporates all parameters is assigned. A dead rat is assigned a score of zero. Most of the parameters contribute a positive value towards a total possible score of 130. For body weight, white blood cell, and platelet decreases, recovery is considered. […] The total score is divided by 13 to put it on a scale from 0 to 10.

Data set [4] relates to Sprague-Dawley rats. The data set can be described thus: In vivo toxicity assessment in rats, oral. Further details: species or system rat. To be noted: for Rat tox score PO: summary score. On the procedure: as §2, §3
Data set [5] deals with human pancreatic tumor xenograft Panc-1. To be noted: Panc-1, best score 10.
Protocol: The tumor used for this study was maintained in athymic nude mice. A tumor fragment (1 mm^3) was implanted s.c. into the right flank of each test mouse. Tumors were monitored twice weekly and then daily as their volume approached 200-400 mm^3 with a mean of 250-300 mm^3. On Day 1 of the study, the animals were sorted into treatment groups with tumor sizes of 171.5-320.0 mm^3 and group mean tumor sizes of 212.6-216.0 mm^3. Tumor size, in mm^3, was calculated from the following formula:
[formula] where w=width and l=length in mm of the tumor. Tumor weight was estimated with the assumption that 1 mg is equivalent to 1 mm^3 of tumor volume. […] All treatments were administered orally, once on Day 1 (qd×1). […] In all groups, the dosing volume of 0.6 mL/20 g mouse was scaled to the body weight of each animal. Each animal was euthanized when its neoplasm reached the predetermined endpoint size (1200 mm^3). The time to endpoint (TTE) for each mouse was calculated by the following equation:
(§4) [formula] where TTE is expressed in days, endpoint volume is in mm^3, b is the intercept, and m is the slope of the line obtained by linear regression of a log-transformed tumor growth data set. The data set is comprised of the first observation that exceeded the study endpoint volume and the three consecutive observations that immediately preceded the attainment of the endpoint volume. […] Animals classified as TR (treatment-related) deaths or NTRM (non-treatment-related metastasis) deaths are assigned a TTE value equal to the day of death. Animals classified as NTR (non-treatment-related) deaths are excluded from TTE calculations. Treatment efficacy was determined from tumor growth delay (TGD), which is defined as the increase in the median TTE for a treatment group compared to the control group: TGD=T−C, expressed in days, or as a percentage of the median TTE of the control group:
[formula] where: • T=median TTE for a treatment group and • C=median TTE for control Group 1.
(§5) Treatment may cause partial regression (PR) or complete regression (CR) of the tumor in an animal. In a PR response, the tumor volume is 50% or less of its Day 1 volume for three consecutive measurements during the course of the study, and equal to or greater than 13.5 mm^3 for one or more of these three measurements. In a CR response, the tumor volume is less than 13.5 mm^3 for three consecutive measurements during the course of the study. An animal with a CR response at the termination of a study is additionally classified as a long-term tumor-free survivor (LTTFS).
With respect to toxicity, the animals were weighed daily on Days 1-5, then twice weekly until the completion of the study. The mice were examined frequently for overt signs of any adverse, drug-related side effects. Acceptable toxicity for the maximum tolerated dose (MTD) of a cancer drug in mice is defined by the NCl as a group mean body-weight (BW) loss of less than 20% during the test, and not more than one toxic death among ten treated animals. The log rank test was employed to analyze the significance of the difference between the TTE values of a drug-treated group and the vehicle-treated control group. The log rank test analyzes the data for all animals except the NTR deaths. The two-tailed statistical analyses were conducted at P=0.05. The group median tumor growth curves show the median tumor volume (MTV) as a function of time. When an animal exited the study due to tumor size or TR death, the final tumor volume recorded for the animal was included with the data used to calculate the median volume at subsequent time points.
Data set [6] concerns HT29 (human colon carcinoma) xenograft. To be noted: HT29, best score 10.
Description: Score=10*(TWd1−TWdn)/TWd1, where
TWd1=tumor weight on day 1
(§6) TWDn=lowest tumor weight on day 10 or later
(§7) Thus the best score for complete regression would be 10.
Data set [7] concerns human pancreatic tumor xenograft Panc-1. To be noted: single dose IV.
Description: as §4, §5
With respect to toxicity, the animals were weighed daily on Days 1-5, then twice weekly until the completion of the study. The mice were examined frequently for overt signs of any adverse, drug-related side effects. […] The log rank test was employed to analyze the significance of the difference between the TTE values of a drug-treated group and the vehicle-treated control group. The log rank test analyzes the data for all animals except the NTR deaths. The two-tailed statistical analyses were conducted at P=0.05. The group median tumor growth curves show the median tumor volume (MTV) as a function of time. When an animal exited the study due to tumor size or TR death, the final tumor volume recorded for the animal was included with the data used to calculate the median volume at subsequent time points. If more than one death occurred in a treatment group, the tumor growth curve for that group was truncated at the time of the second death.
Human Panc-1 pancreatic carcinomas were maintained in athymic nude mice. A tumor fragment (1 mm^3) was implanted s.c. into the right flank of each test mouse. Tumors were monitored twice weekly and then daily as their size approached 200-400 mm^3 with a mean of 250-300 mm^3. On Day 1 of the study, the animals were sorted into groups of six mice, with tumor sizes of 171.5-486.0 mm^3 and group mean tumor sizes of 269.7-275.0 mm^3. Mice were sorted into groups containing six mice each, and treated according to the protocol in Tables 2A and 2B. All treatments were administered intravenously. Control Group 1 mice received the ethanol 5% and Liposyn II 95% vehicle, once on Day 1 (qd×1). […] Dosing volumes were 0.5 ml/20 g body weight for qd×1 dosing regimens and 0.3 mL/20 g body weight for the qod×5 or q4d×4 dosing schedules. Dosing volumes were scaled to the body weight of each animal. The vehicle was given to Group 1 mice in a single dose on Day 1 (qd×1).
Data set [8] relates to HT29 (human colon carcinoma) xenograft. To be noted: single dose IV.
Description: Score=10*(TWd1−TWdn)/TWd1, where
TWd1=tumor weight on day 1
as §6, §7
For data set [9], the system named is DLD-1 (resistant human colon carcinoma). The data set can be described thus: In vitro cytotoxicity, MTT assay, DLD-1. In kind it is cell-based.
Where [10] appears, read: Homo sapiens, HCT-116, 72 h drug incubation.

Where two headings read alike, the source gives them in different places.

On to `CC(=O)OC12COC1CC(O)C1(C)C(=O)C(OC(=O)C3CC3)C3=C(C)C(OC(=O)C(O)C(NC(=O)OC(C)(C)C)c4ccco4)CC(O)(C(OC(=O)c4ccccc4)C21)C3(C)C` (stereo not drawn) [Compound 0843, reference compound], for which the IC50 in data set [1] (72 h drug incubation) was determined as 0.24 nM; in data set [2] (72 h drug incubation), 0.86 nM. In addition, the “Rat tox score IV” value in the data set on Sprague-Dawley rats [3] (scale 0 to 10) came out at 0. The “Rat tox score PO” value in the data set with Sprague-Dawley rats [4] (scale 0 to 10) is reported as 0.

For `CC(=O)OC12COC1CC(O)C1(C)C(=O)C(OC(=O)C3CC3)C3=C(C)C(OC(=O)C(O)C(NC(=O)OC(C)(C)C)c4cccs4)CC(O)(C(OC(=O)c4ccccc4)C21)C3(C)C` (stereo not drawn) [Compound 0854, reference compound], the values for the half-maximal inhibitory concentration (IC50) in [1] (72 h drug incubation) and in data set [2] (72 h drug incubation) were 0.05 nM and 0.09 nM, respectively. Also, in the data set on Sprague-Dawley rats [3] (scale 0 to 10), the “Rat tox score IV” value was 1. The “Rat tox score PO” value with Sprague-Dawley rats [4] (scale 0 to 10) is 0.

`CC(=O)OC12COC1CC(O)C1(C)C(=O)C(OC(=O)C3CC3)C3=C(C)C(OC(=O)C(O)C(NC(=O)OC(C)(C)C)c4ccoc4)CC(O)(C(OC(=O)c4ccccc4)C21)C3(C)C` (stereo not drawn) [Compound 2781, reference compound]: the values for the concentration for half-maximal inhibition (IC50) in [1] (72 h drug incubation) and in data set [2] (72 h drug incubation) were 0.18 nM and 1.91 nM, respectively. Moreover, the “Rat tox score IV” value in the data set on Sprague-Dawley rats [3] (scale 0 to 10) worked out at 1. The “Rat tox score PO” value in the data set with Sprague-Dawley rats [4] (scale 0 to 10) is 0.

For `CC(=O)OC12COC1CC(O)C1(C)C(=O)C(OC(=O)C3CC3)C3=C(C)C(OC(=O)C(O)C(NC(=O)OC(C)(C)C)c4ccsc4)CC(O)(C(OC(=O)c4ccccc4)C21)C3(C)C` (stereo not drawn) [Compound 2794], the half-inhibitory concentration (IC50) came to 0.28 nM in data set [1] (72 h drug incubation) and 2.03 nM in [2] (72 h drug incubation).

For `CC(=O)OC12COC1CC(O)C1(C)C(=O)C(OC(=O)C3CC3)C3=C(C)C(OC(=O)C(O)C(NC(=O)OC(C)(C)C)c4ccccn4)CC(O)(C(OC(=O)c4ccccc4)C21)C3(C)C` (stereo not drawn) [Compound 2802], the IC50 was 0.3 nM in data set [1] (72 h drug incubation) and 3.32 nM in data set [2] (72 h drug incubation).

For `CC(=O)OC12COC1CC(O)C1(C)C(=O)C(OC(=O)C3CC3)C3=C(C)C(OC(=O)C(O)C(NC(=O)OC(C)(C)C)c4ccncc4)CC(O)(C(OC(=O)c4ccccc4)C21)C3(C)C` (stereo not drawn) [Compound 2813], the IC50 in data set [1] (72 h drug incubation) was 0.05 nM; in data set [2] (72 h drug incubation) it was 8.22 nM.

In the case of `CC(=O)OC12COC1CC(O)C1(C)C(=O)C(OC(=O)C3CC3)C3=C(C)C(OC(=O)C(O)C(NC(=O)OC(C)C)c4cccs4)CC(O)(C(OC(=O)c4ccccc4)C21)C3(C)C` (stereo not drawn) [Compound 3071, reference compound], the results for the 50% inhibitory concentration (IC50) in [1] (72 h drug incubation) and in data set [2] (72 h drug incubation) were 0.17 nM and 1.51 nM, respectively. The “Tox Score, Dose 3 mg” value in the data set with Sprague-Dawley rats [3] (dose 3 mg, scale 0 to 10) stood at 7.7. Also, the “Tox Score, Dose 9 mg” value in the data set on Sprague-Dawley rats [3] (dose 9 mg, scale 0 to 10) is 6. In the data set with Sprague-Dawley rats [3] (dose 12 mg, scale 0 to 10), the “Tox Score, Dose 12 mg” value came out at 3.2. The “Tox Score, Weighted Avg” value is 4.8 in the data set on Sprague-Dawley rats [3] (Wt Avg = (Σ(dose × grp score))/24) and 3.6 in the data set with Sprague-Dawley rats [4] (Oral, weighted by dose). The “Tox Score, Average” value is recorded as 5.6 in the data set on Sprague-Dawley rats [3] (average of 3 dose groups) and 4.3 in the data set with Sprague-Dawley rats [4] (Oral, average of 3 dose groups). Besides, the “Rat tox score IV” value in the data set with Sprague-Dawley rats [3] (scale 0 to 10) is recorded as 5. In addition, the “Tox Score, Dose 15 mg” value in the data set with Sprague-Dawley rats [4] (Oral, dose 15 mg, scale 0 to 10) is 6.2. In the data set on Sprague-Dawley rats [4] (Oral, dose 30 mg, scale 0 to 10), the “Tox Score, Dose 30 mg” value is 5.1. Further, the “Tox Score, Dose 40 mg” value in the data set on Sprague-Dawley rats [4] (Oral, dose 40 mg, scale 0 to 10) turned out to be 1.5. Besides, in the data set on Sprague-Dawley rats [4] (scale 0 to 10), the “Rat tox score PO” value turned out to be 4. For the same compound, the “Efficacy Score = 10*(TWd1−TWdn)/TWd1” value in data set [5] (single dose oral 60 mg/kg) is given as 5.8; in [5] (single dose oral 120 mg/kg), 7.3; in [6] (single dose oral 60 mg/kg), 6.3; in data set [6] (single dose oral 120 mg/kg), 7.5.

With `CC(=O)OC12COC1CC(O)C1(C)C(=O)C(OC(=O)C3CC3)C3=C(C)C(OC(=O)C(O)C(NC(=O)OCC(C)C)c4ccco4)CC(O)(C(OC(=O)c4ccccc4)C21)C3(C)C` (stereo not drawn) [Compound 3102, reference compound], the IC50 in data set [1] (72 h drug incubation) is 0.33 nM; in data set [2] (72 h drug incubation), 1.49 nM. In the data set with Sprague-Dawley rats [3] (scale 0 to 10), the “Rat tox score IV” value was found to be 6. In the data set on Sprague-Dawley rats [4] (scale 0 to 10), the “Rat tox score PO” value is reported as 6. Also, the “Efficacy Score = 10*(TWd1−TWdn)/TWd1” value in [7] (Dose 60, best score 10) is on record as 2.6; in data set [7] (Dose 120, best score 10) it was 5.3; in data set [8] (Dose 60, best score 10), 1.3; in data set [8] (Dose 120, best score 10), 5.3.

Consider `CC(=O)OC12COC1CC(O)C1(C)C(=O)C(OC(=O)C3CC3)C3=C(C)C(OC(=O)C(O)C(NC(=O)OCC(C)C)c4cccs4)CC(O)(C(OC(=O)c4ccccc4)C21)C3(C)C` (stereo not drawn) [Compound 3129], for which the half-inhibitory concentration (IC50) in data set [1] (72 h drug incubation) amounted to 1.53 nM; in [2] (72 h drug incubation) it was 2.88 nM.

`CCCC(=O)NC(c1cccs1)C(O)C(=O)OC1CC2(O)C(OC(=O)c3ccccc3)C3C4(OC(C)=O)COC4CC(O)C3(C)C(=O)C(OC(=O)C3CC3)C(=C1C)C2(C)C` (stereo not drawn) [Compound 3132]: the values for the IC50 in [1] (72 h drug incubation) and in data set [2] (72 h drug incubation) were 0.37 nM and 5.33 nM, respectively.

On to `CCOC(=O)NC(c1ccco1)C(O)C(=O)OC1CC2(O)C(OC(=O)c3ccccc3)C3C4(OC(C)=O)COC4CC(O)C3(C)C(=O)C(OC(=O)C3CC3)C(=C1C)C2(C)C` (stereo not drawn) [Compound 3677], for which the IC50 was determined as 0.3 nM in data set [1] (72 h drug incubation) and 18.6 nM in data set [2] (72 h drug incubation).

As to `CC(=O)OC12COC1CC(O)C1(C)C(=O)C(OC(=O)C3CC3)C3=C(C)C(OC(=O)C(O)C(NC(=O)OC(C)C)c4ccco4)CC(O)(C(OC(=O)c4ccccc4)C21)C3(C)C` (stereo not drawn) [Compound 3853, reference compound], the half-maximal inhibitory concentration (IC50) was 0.08 nM in data set [1] (72 h drug incubation) and 0.99 nM in [2] (72 h drug incubation). Moreover, in the data set on Sprague-Dawley rats [3] (scale 0 to 10), the “Rat tox score IV” value was determined as 1. Besides, the “Rat tox score PO” value in the data set with Sprague-Dawley rats [4] (scale 0 to 10) was 1.

`CCOC(=O)NC(c1cccs1)C(O)C(=O)OC1CC2(O)C(OC(=O)c3ccccc3)C3C4(OC(C)=O)COC4CC(O)C3(C)C(=O)C(OC(=O)C3CC3)C(=C1C)C2(C)C` (stereo not drawn) [Compound 4051]: the values for the IC50 in [1] (72 h drug incubation) and in [2] (72 h drug incubation) were 0.3 nM and 1.62 nM, respectively. Further, the “Rat tox score PO” value in the data set on Sprague-Dawley rats [4] (scale 0 to 10) is 5.

`CCCC(=O)NC(c1ccco1)C(O)C(=O)OC1CC2(O)C(OC(=O)c3ccccc3)C3C4(OC(C)=O)COC4CC(O)C3(C)C(=O)C(OC(=O)C3CC3)C(=C1C)C2(C)C` (stereo not drawn) [Compound 4062]: the IC50 was 0.59 nM in data set [1] (72 h drug incubation) and 7.64 nM in data set [2] (72 h drug incubation).

Turning to `CC(=O)OC12COC1CC(O)C1(C)C(=O)C(OC(=O)C3CC3)C3=C(C)C(OC(=O)C(O)C(NC(=O)OCC(C)C)c4ccoc4)CC(O)(C(OC(=O)c4ccccc4)C21)C3(C)C` (stereo not drawn) [Compound 4665], the 50% inhibitory concentration (IC50) in data set [1] (72 h drug incubation) stood at 2.13 nM; in data set [2] (72 h drug incubation), 28.4 nM.

`CC(=O)OC12COC1CC(O)C1(C)C(=O)C(OC(=O)C3CC3)C3=C(C)C(OC(=O)C(O)C(NC(=O)OCC(C)C)c4ccsc4)CC(O)(C(OC(=O)c4ccccc4)C21)C3(C)C` (stereo not drawn) [Compound 5011]: the IC50 in data set [1] (72 h drug incubation) amounted to 2.99 nM; in [2] (72 h drug incubation), 8.47 nM.

Regarding `CC(=O)O[C@@]12CO[C@@H]1C[C@H](O)[C@@]1(C)C(=O)[C@H](O)C3=C(C)[C@@H](OC(=O)[C@H](O)[C@@H](NC(=O)OC(C)(C)C)c4ccccc4)C[C@@](O)([C@@H](OC(=O)c4ccccc4)[C@H]21)C3(C)C` [docetaxel], the figures for the half-maximal inhibitory concentration (IC50) in data set [1] (72 h drug incubation), in [2] (72 h drug incubation) and in data set [9] were 0.6 nM, 6.7 nM and 9.1 nM, respectively.

Regarding `CC(=O)O[C@H]1C(=O)[C@@]2(C)[C@H]([C@H](OC(=O)c3ccccc3)[C@]3(O)C[C@H](OC(=O)[C@H](O)[C@@H](NC(=O)c4ccccc4)c4ccccc4)C(C)=C1C3(C)C)[C@]1(OC(C)=O)CO[C@@H]1C[C@@H]2O` [paclitaxel], the IC50 in [1] (setting [10]) came out at 2.1 nM; in [2] (setting [10]), 20 nM; in [9] (Homo sapiens, DLD-1), 10.1 nM.
